From the supplement of paper PMC6045584 come the findings set out here.

Compound in assay [1]: Oc1nc(-c2ccc(C(F)(F)F)cc2)nc2c1CSCC2 [XAV-939]
Description: surviving fraction relative to DMSO-only wells; higher = less growth inhibition. To be noted: exposure time: 5 days. In a few lines: (§1)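 Surviving fraction is CellTiter-Glo luminescence divided by the median of wells given DMSO only. For this, log-phase tumour cell lines went into 384-well plates at 250–500 cells per well and, 24 hours later, into five days of continuous inhibitor exposure at 0.5, 1, 5, 10, 50, 100, 500 and 1000 nM. Lines were screened three times and retained only if replicate Pearson r >0.7 and median Z' >0.3.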

Compound in assay [2]: COc1cc2c(Oc3ccc(NC(=O)C4(C(=O)Nc5ccc(F)cc5)CC4)cc3F)ccnc2cc1OCCCN1CCOCC1 [FORETINIB]
The description is as above. The conditions noted are these: exposure time: 5 days. A digest of the protocol: as §1

± gives the standard deviation of the averaged measurements.

Regarding SG27 HEADNECK, the surviving fraction in assay [1] (0.5 nM) is 1.1 ± 0.076; in assay [1] (1 nM), 0.993 ± 0.089; in assay [1] (5 nM), 1 ± 0.058; in assay [1] (10 nM), 1.02 ± 0.052; in assay [1] (50 nM) it was 1.08 ± 0.049; in assay [1] (100 nM), 0.966 ± 0.081. The surviving fraction in assay [1] (500 nM) worked out at 0.825 ± 0.062; in assay [1] (1000 nM), 0.802 ± 0.11; in assay [2] (0.5 nM), 0.986 ± 0.14; in assay [2] (1 nM), 1.12 ± 0.063; in assay [2] (5 nM), 1.07 ± 0.11; in assay [2] (10 nM), 1.11 ± 0.14. Also, the surviving fraction is 0.962 ± 0.12 in assay [2] (50 nM), 1.02 ± 0.075 in assay [2] (100 nM), 0.901 ± 0.11 in assay [2] (500 nM) and 0.829 ± 0.078 in assay [2] (1000 nM).
Consider SYO1 SYNOVIAL, for which the surviving fraction amounted to 0.954 ± 0.039 in assay [1] (0.5 nM); 0.998 ± 0.062 in assay [1] (1 nM); 0.984 ± 0.028 in assay [1] (5 nM); 0.997 ± 0.047 in assay [1] (10 nM); 0.973 ± 0.059 in assay [1] (50 nM); 0.879 ± 0.024 in assay [1] (100 nM). Besides, the surviving fraction in assay [1] (500 nM) was determined as 0.708 ± 0.044; in assay [1] (1000 nM), 0.568 ± 0.0066; in assay [2] (0.5 nM) it was 0.989 ± 0.038; in assay [2] (1 nM) it was 0.971 ± 0.05; in assay [2] (5 nM) it was 0.929 ± 0.026; in assay [2] (10 nM) it was 0.914 ± 0.027. Further, the surviving fraction in assay [2] (50 nM) was 0.821 ± 0.013; in assay [2] (100 nM), 0.749 ± 0.028; in assay [2] (500 nM), 0.25 ± 0.0099; in assay [2] (1000 nM), 0.189 ± 0.026.
HUO3N1 BONE: the surviving fraction in assay [1] (0.5 nM) was 1.03 ± 0.037; in assay [1] (1 nM), 1.07 ± 0.12; in assay [1] (5 nM), 1.04 ± 0.032; in assay [1] (10 nM) it was 1.06 ± 0.048; in assay [1] (50 nM), 1.09 ± 0.064; in assay [1] (100 nM), 1.08 ± 0.034. Besides, the surviving fraction in assay [1] (500 nM) is 0.761 ± 0.043; in assay [1] (1000 nM) it was 0.759 ± 0.0095; in assay [2] (0.5 nM) it was 1 ± 0.035; in assay [2] (1 nM) it was 0.992 ± 0.079; in assay [2] (5 nM) it was 1.06 ± 0.059; in assay [2] (10 nM), 1.01 ± 0.039. Moreover, the surviving fraction in assay [2] (50 nM) was 0.903 ± 0.04; in assay [2] (100 nM), 0.819 ± 0.006; in assay [2] (500 nM), 0.619 ± 0.02; in assay [2] (1000 nM) it was 0.412 ± 0.025.
Regarding NCIH441 LUNG, the surviving fraction in assay [1] (0.5 nM) was determined as 0.962 ± 0.096; in assay [1] (1 nM), 1.07 ± 0.052; in assay [1] (5 nM), 1.02 ± 0.064; in assay [1] (10 nM) it was 1.07 ± 0.065; in assay [1] (50 nM), 1.02 ± 0.077; in assay [1] (100 nM), 1.06 ± 0.054. Besides, the surviving fraction worked out at 1.01 ± 0.045 in assay [1] (500 nM); 0.918 ± 0.052 in assay [1] (1000 nM); 1.11 ± 0.021 in assay [2] (0.5 nM); 1.09 ± 0.063 in assay [2] (1 nM); 1.1 ± 0.038 in assay [2] (5 nM); 1 ± 0.079 in assay [2] (10 nM). Moreover, the surviving fraction in assay [2] (50 nM) amounted to 0.983 ± 0.026; in assay [2] (100 nM) it was 0.932 ± 0.065; in assay [2] (500 nM), 0.807 ± 0.04; in assay [2] (1000 nM), 0.655 ± 0.066.
As for ASKA SYNOVIAL, the surviving fraction in assay [1] (0.5 nM) was 1.15 ± 0.11; in assay [1] (1 nM), 1.17 ± 0.098; in assay [1] (5 nM), 1.18 ± 0.028; in assay [1] (10 nM), 1.23 ± 0.13; in assay [1] (50 nM), 1.2 ± 0.073; in assay [1] (100 nM), 1.14 ± 0.065. For the same test system, the surviving fraction in assay [1] (500 nM) stood at 0.98 ± 0.068; in assay [1] (1000 nM), 0.984 ± 0.023; in assay [2] (0.5 nM) it was 1.11 ± 0.065; in assay [2] (1 nM) it was 1.14 ± 0.037; in assay [2] (5 nM), 1.06 ± 0.085; in assay [2] (10 nM) it was 1.07 ± 0.075. In addition, the surviving fraction in assay [2] (50 nM) amounted to 1.13 ± 0.042; in assay [2] (100 nM), 1.03 ± 0.044; in assay [2] (500 nM) it was 0.371 ± 0.026; in assay [2] (1000 nM), 0.297 ± 0.0071.
As to PCI30 HEADNECK, the surviving fraction came out at 1.01 ± 0.029 in assay [1] (0.5 nM); 0.975 ± 0.064 in assay [1] (1 nM); 1.07 ± 0.04 in assay [1] (5 nM); 1.057 ± 0.0035 in assay [1] (10 nM); 1.06 ± 0.036 in assay [1] (50 nM); 1.15 ± 0.065 in assay [1] (100 nM). Further, the surviving fraction in assay [1] (500 nM) is 0.945 ± 0.13; in assay [1] (1000 nM), 0.8693 ± 0.008; in assay [2] (0.5 nM), 1.07 ± 0.09; in assay [2] (1 nM), 1.1 ± 0.043; in assay [2] (5 nM) it was 1.1 ± 0.019; in assay [2] (10 nM) it was 1.11 ± 0.045. Besides, the surviving fraction in assay [2] (50 nM) was found to be 1.04 ± 0.028; in assay [2] (100 nM), 1.04 ± 0.072; in assay [2] (500 nM), 0.806 ± 0.056; in assay [2] (1000 nM) it was 0.484 ± 0.0076.
On to T47D BREAST, for which the surviving fraction in assay [1] (0.5 nM) is 1.04 ± 0.074; in assay [1] (1 nM), 1.08 ± 0.045; in assay [1] (5 nM), 1.07 ± 0.02; in assay [1] (10 nM) it was 1.09 ± 0.014; in assay [1] (50 nM) it was 1.09 ± 0.044; in assay [1] (100 nM), 1.13 ± 0.053. The surviving fraction in assay [1] (500 nM) came out at 1.04 ± 0.052; in assay [1] (1000 nM) it was 1.05 ± 0.042; in assay [2] (0.5 nM) it was 1.02 ± 0.032; in assay [2] (1 nM), 1.08 ± 0.056; in assay [2] (5 nM) it was 1.08 ± 0.023; in assay [2] (10 nM), 1.08 ± 0.029. The surviving fraction in assay [2] (50 nM) worked out at 1.04 ± 0.025; in assay [2] (100 nM) it was 1.08 ± 0.04; in assay [2] (500 nM), 0.897 ± 0.064; in assay [2] (1000 nM), 0.898 ± 0.028.
As for HCT15 LARGE INTESTINE, the surviving fraction in assay [1] (0.5 nM) was found to be 1.03 ± 0.058; in assay [1] (1 nM) it was 1.07 ± 0.031; in assay [1] (5 nM), 1.04 ± 0.034; in assay [1] (10 nM), 1.07 ± 0.059; in assay [1] (50 nM) it was 0.932 ± 0.054; in assay [1] (100 nM) it was 1.03 ± 0.03. Further, the surviving fraction in assay [1] (500 nM) was determined as 0.961 ± 0.064; in assay [1] (1000 nM) it was 0.973 ± 0.04; in assay [2] (0.5 nM), 1.08 ± 0.1; in assay [2] (1 nM), 1.09 ± 0.084; in assay [2] (5 nM), 1.06 ± 0.09; in assay [2] (10 nM), 1.05 ± 0.073. Also, the surviving fraction in assay [2] (50 nM) came out at 1.07 ± 0.091; in assay [2] (100 nM) it was 1.11 ± 0.097; in assay [2] (500 nM) it was 0.217 ± 0.046; in assay [2] (1000 nM), 0.203 ± 0.042.
